Laboratory results published in patent publication US9284283B2, “Macrocyclic compounds for modulating IL-17” (ENSEMBLE THERAPEUTICS CORPORATION, priority 2012, dated 2016).

Assays:
[1] = target: T1, recombinant human IL17a (binding to its receptor IL17R) (Homo sapiens, UniProt Q16552); assay: IL-17 competition ELISA I (IL17a coated, IL17R/Fc binding)
T1 construct: purchased R&D Systems 317-ILB (IL17a); 177-IR (IL17R/Fc)
T1 sequence (Q16552 20-155 limits assumed): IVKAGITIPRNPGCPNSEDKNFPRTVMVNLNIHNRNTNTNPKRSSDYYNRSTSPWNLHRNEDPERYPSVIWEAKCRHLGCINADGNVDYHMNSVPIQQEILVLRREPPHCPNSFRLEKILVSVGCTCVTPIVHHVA
How it was run: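 Plates coated with 20 nM recombinant human IL17a received compound dilutions and 12 nM IL17R/Fc (final) for 30 min at room temperature. Bound receptor was detected with HRP anti-human Fc and TMB, read at 450 nm. IC50 came from a 4-parameter logistic fit between no-competitor and blank controls.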

[2] = tested on: IL-17-induced GROα secretion from HT-29 cells; assay: HT-29 cellular assay (IL-17-induced GROα secretion); type: cell-based; conditions: Homo sapiens
Experimental: To test the ability of a compound of the invention to neutralize or antagonize IL-17 bioactivity, the following cell-based assay was used. IL-17 can stimulate epithelial cells and other cells to secrete GROα. The ability of a compound of the invention to neutralize IL-17-induced GROα secretion from the human colorectal adenocarcinoma epithelial cell line HT-29 is tested in this assay.
HT-29 cells (human colorectal adenocarcinoma epithelial cells, ATCC #HTB-38), were maintained in culture/assay medium in tissue culture-treated flasks using standard techniques. HT-29 cells were grown in tissue culture flasks until they were 50-80% confluent on the day before the assay. The day before the assay, the cells were detached from the culture flasks with trypsin+EDTA. The trypsin was inactivated with complete assay medium. HT-29 cells were then centrifuged at 500×g for 5 minutes at room temperature. The cell pellet was then re-suspended in Defined Keratinocyte SFM (Invitrogen #10766019)+10% FCS and 50,000 HT-29 cells (in 100 μl) were added to each treatment well of the 96-well plates. The 96-well plates were placed in a tissue culture incubator (37° C., 5% CO2) overnight. The next day, the media was removed from the cells and the cells were washed twice with Defined Keratinocyte SFM. In a separate 96-well plate, compounds to be tested were serially diluted in Defined Keratinocyte SFM and run in triplicate in 100 μL total volume. To these compound samples were then added 100 μL of human IL-17 at a concentration of 20 ng/mL in Defined Keratinocyte SFM for serum-free assays. 150 μL of the compound/IL-17 mixture was then added to the cells from which the media has previously been removed. The cells were grown for 48 hours in Defined Keratinocyte SFM in a tissue culture incubator (37° C., 5% CO2).
At the end of the incubation, the plates are centrifuged (500×g for 5 minutes at room temperature), and the cell culture media is transferred to polypropylene 96-well plates. The supernatant was used neat in the ELISA. GROα levels are measured with a GROα sandwich ELISA (R+D Systems DuoSet #DY275E), as per the manufacturer's instructions. The ELISA plates were previously coated with mAb 275 (R+D Systems) at 4 μg/mL. GROα is detected using biotinylated goat anti-human GROα (R+D Systems BAF275) at 200 ng/mL using TMB as a substrate. At the end of the ELISA reactions, plates are read at 450 nm on a microplate reader and compared to a standard calibration curve.

Structure (SMILES) | IC50 [1] | IC50 [2]
COC(=O)[C@@H]1CCCCNC(=O)CCCNC(=O)[C@@H](Cc2ccc(NC(=O)[C@H](Cc3ccccc3F)NC(=O)Cc3ccccc3)cc2)NC(=O)CC2(CCCC2)CC(=O)N1 [Compound 106] | 100 to 1000 nM | > 10000 nM
COC(=O)[C@@H]1CCCCNC(=O)CNC(=O)[C@@H](Cc2ccc(NC(=O)[C@H](Cc3ccccc3Cl)NC(=O)Cc3ccccc3)cc2)NC(=O)CC2(CCCC2)CC(=O)N1 [Compound 143] | < 100 nM | < 1000 nM
COC(=O)[C@@H]1CCCCNC(=O)CNC(=O)[C@@H](Cc2ccc(NC(=O)[C@H](Cc3ccccc3Cl)NC(=O)c3ccccc3)cc2)NC(=O)CC2(CCCC2)CC(=O)N1 [Compound 144] | < 100 nM | 1000 to 10000 nM
O=C1CNC(=O)[C@@H](Cc2ccc(NC(=O)[C@H](Cc3ccccc3Cl)NC(=O)Cc3ccccc3)cc2)NC(=O)CC2(CCCC2)CC(=O)NCCCCCN1 [Compound 159] | < 100 nM | < 1000 nM
O=C1CNC(=O)[C@@H](Cc2ccc(NC(=O)[C@H](Cc3ccc(Cl)cc3Cl)NC(=O)Cc3ccccc3)cc2)NC(=O)CC2(CCCC2)CC(=O)NCCCCCN1 [Compound 185] | < 100 nM | 1000 to 10000 nM
O=C1CNC(=O)[C@@H](Cc2ccc(NC(=O)[C@@H](NC(=O)Cc3ccccc3)C3CCCCC3)cc2)NC(=O)CC2(CCCC2)CC(=O)NCCCCCN1 [Compound 186] | < 100 nM | –
O=C1CNC(=O)[C@@H](Cc2ccc(NC(=O)[C@H](Cc3ccc(Cl)cc3Cl)NC(=O)Cc3ccc(O)cc3)cc2)NC(=O)CC2(CCCC2)CC(=O)NCCCCCN1 [Compound 191] | < 100 nM | < 1000 nM
O=C1CNC(=O)[C@@H](Cc2ccc(NC(=O)[C@H](Cc3ccccc3Cl)NC(=O)c3cccnc3)cc2)NC(=O)CC2(CCCC2)CC(=O)NCCCCCN1 [Compound 194] | < 100 nM | –
O=C1CNC(=O)[C@@H](Cc2ccc(NC(=O)[C@H](Cc3ccccc3Cl)NC(=O)Cc3ccccn3)cc2)NC(=O)CC2(CCCC2)CC(=O)NCCCCCN1 [Compound 226] | < 100 nM | –
